From patent US9000020B2, “Linked dibenzimidazole antivirals” (Enanta Pharmaceuticals, Inc., priority 2009, dated 2015)

system: HCV 1b genotype replicon; test: HCV Replicon Assay - qRT-PCR (HCV RNA detection); format: cell-based; conditions: Hepatitis C virus, from the qRT-PCR or luciferase assay (not specified which), read-out: Genotype-1b replicon EC50 Range
Text: HCV replicon cell lines (kindly provided by R. Bartenschlager) isolated from colonies as described by Lohman et. al. (Lohman et al. (1999) Science 285: 110-113, expressly incorporated by reference in its entirety) and used for all experiments. The HCV replicon has the nucleic acid sequence set forth in EMBL Accession No.: AJ242651, the coding sequence of which is from nucleotides 1801 to 8406.
The coding sequence of the published HCV replicon was synthesized and subsequently assembled in a modified plasmid pBR322 (Promega, Madison, Wis.) using standard molecular biology techniques. One replicon cell line (“SGR 11-7”) stably expresses HCV replicon RNA which consists of (i) the HCV 5′UTR fused to the first 12 amino acids of the capsid protein, (ii) the neomycin phosphotransferase gene (neo), (iii) the IRES from encephalomyocarditis virus (EMCV), and (iv) HCV NS2 to NS5B genes and the HCV 3′UTR. Another replicon cell line (“Huh-luc/neo-ET”) described by Vrolijk et. al. (Vrolijk et. al. (2003) Journal of Virological Methods 110:201-209, expressly incorporated by reference in its entirety) stably expresses HCV replicon RNA which consists of (i) the HCV 5′UTR fused to the first 12 amino acids of the capsid protein, (ii) the firefly luciferase reporter gene, (iii) the ubiquitin gene, (iv) the neomycin phosphotransferase gene (neo), (v) the IRES from encephalomyocarditis virus (EMCV), and (vi) HCV NS3 to NS5B genes that harbor cell culture adaptive mutations (E1202G, T1280I, K1846T) and the HCV 3′UTR.
These cell lines were maintained at 37° C., 5% CO2, 100% relative humidity in DMEM (Cat #11965-084, Invitrogen), with 10% fetal calf serum (“FCS”, Invitrogen), 1% non-essential amino acids (Invitrogen), 1% of Glutamax (Invitrogen), 1% of 100× penicillin/streptomycin (Cat #15140-122, Invitrogen) and Geneticin (Cat #10131-027, Invitrogen) at 0.75 mg/ml or 0.5 mg/ml for 11-7 and Huh-luc/neo-ET cells, respectively.
EC50 values of single agent compounds and combinations were determined by HCV RNA detection using quantitative RT-PCR, according to the manufacturer's instructions, with a TaqMan® One-Step RT-PCR Master Mix Reagents Kit (Cat #AB 4309169, Applied Biosystems) on an ABI Model 7500 thermocycler. The TaqMan primers used for detecting and quantifying were obtained from Integrated DNA Technologies. HCV RNA was normalized to GAPDH RNA levels in drug-treated cells, which was detected and quantified using the Human GAPDH Endogenous Control Mix (Applied Biosystems, AB 4310884E). Total cellular RNA was purified from 96-well plates using the RNAqueous 96 kit (Ambion, Cat #AM1812). Chemical agent cytotoxicity was evaluated using an MTS assay according to the manufacturer's directions (Promega).
The compounds of the present invention can be effective against the HCV 1b genotype. It should also be understood that the compounds of the present invention can inhibit multiple genotypes of HCV. In one embodiment, compound of the present invention are active against the 1a, 1b, 2a, 2b, 3a, 4a, and 5a genotypes. […] EC50 ranges against HCV 1b are as follows: A>10 nM; B 1-10 nM; C<1 nM.

SMILES | EC50 [nM]
CN(C)[C@@H](C(=O)N1CCC[C@H]1c1nc2cc(-c3ccc(-c4ccc5[nH]c([C@@H]6CCCN6C(=O)[C@@H](c6ccccc6)N(C)C)nc5c4)cc3)ccc2[nH]1)c1ccccc1 [Compound 2] | < 1
COC(=O)N[C@@H](C(=O)N1CCC[C@H]1c1nc2cc(-c3ccc(-c4ccc5[nH]c([C@@H]6CCCN6C(=O)[C@H](NC(=O)OC)c6ccccc6)nc5c4)cc3)ccc2[nH]1)c1ccccc1 [Compound 3] | < 1
CO[C@@H](C(=O)N1CCC[C@H]1c1nc2cc(-c3ccc(-c4ccc5[nH]c([C@@H]6CCCN6C(=O)[C@H](OC)c6ccccc6)nc5c4)cc3)ccc2[nH]1)c1ccccc1 [Compound 20] | < 1
O=C([C@@H]1CCCO1)N1CCC[C@H]1c1nc2cc(-c3ccc(-c4ccc5[nH]c([C@@H]6CCCN6C(=O)[C@@H]6CCCO6)nc5c4)cc3)ccc2[nH]1 [Compound 25] | > 10
O=C([C@H]1CCCO1)N1CCC[C@H]1c1nc2cc(-c3ccc(-c4ccc5[nH]c([C@@H]6CCCN6C(=O)[C@H]6CCCO6)nc5c4)cc3)ccc2[nH]1 [Compound 26] | > 10
COC(=O)N[C@H]1CC[C@H](C(=O)N2CCC[C@H]2c2nc3cc(-c4ccc(-c5ccc6[nH]c([C@@H]7CCCN7C(=O)[C@H]7CC[C@H](NC(=O)OC)CC7)nc6c5)cc4)ccc3[nH]2)CC1 [Compound 42] | > 10
O=C(c1ccncc1)N1CCC[C@H]1c1nc2cc(-c3ccc(-c4ccc5[nH]c([C@@H]6CCCN6C(=O)c6ccncc6)nc5c4)cc3)ccc2[nH]1 [Compound 52] | > 10
O=C(c1ccccn1)N1CCC[C@H]1c1nc2cc(-c3ccc(-c4ccc5[nH]c([C@@H]6CCCN6C(=O)c6ccccn6)nc5c4)cc3)ccc2[nH]1 [Compound 54] | > 10
COC(=O)N[C@@H](C)C(=O)N1CCC[C@H]1c1nc2cc(-c3ccc(-c4ccc5[nH]c([C@@H]6CCCN6C(=O)[C@H](C)NC(=O)OC)nc5c4)cc3)ccc2[nH]1 [Compound 62] | < 1
CC[C@H](NC(=O)OC)C(=O)N1CCC[C@H]1c1nc2cc(-c3ccc(-c4ccc5[nH]c([C@@H]6CCCN6C(=O)[C@H](CC)NC(=O)OC)nc5c4)cc3)ccc2[nH]1 [Compound 67] | < 1
COC(=O)N[C@H](C(=O)N1CCC[C@H]1c1nc2cc(-c3ccc(-c4ccc5[nH]c([C@@H]6CCCN6C(=O)[C@@H](NC(=O)OC)[C@@H](C)O)nc5c4)cc3)ccc2[nH]1)[C@@H](C)O [Compound 70] | < 1
COC(=O)N[C@H](C(=O)N1CCC[C@H]1c1nc2cc(-c3ccc(-c4ccc5[nH]c([C@@H]6CCCN6C(=O)[C@@H](NC(=O)OC)[C@@H](C)OC)nc5c4)cc3)ccc2[nH]1)[C@@H](C)OC [Compound 72] | < 1
COC(=O)N[C@H](C(=O)N1CCC[C@H]1c1nc2cc(-c3ccc(-c4ccc5[nH]c([C@@H]6CCCN6C(=O)[C@@H](NC(=O)OC)C6CC6)nc5c4)cc3)ccc2[nH]1)C1CC1 [Compound 78] | < 1
COC(=O)N[C@H](C(=O)N1CCC[C@H]1c1nc2cc(-c3ccc(-c4ccc5[nH]c([C@@H]6CCCN6C(=O)[C@@H](NC(=O)OC)C(C)C)nc5c4)cc3)ccc2[nH]1)C(C)C [Compound 83] | < 1
COC(=O)N[C@@H](Cn1cccn1)C(=O)N1CCC[C@H]1c1nc2cc(-c3ccc(-c4ccc5[nH]c([C@@H]6CCCN6C(=O)[C@H](Cn6cccn6)NC(=O)OC)nc5c4)cc3)ccc2[nH]1 [Compound 114] | < 1
COC(=O)N[C@@H](C(=O)N1CCC[C@H]1c1nc2cc(N3CCN(c4ccc5[nH]c([C@@H]6CCCN6C(=O)[C@H](NC(=O)OC)c6ccccc6)nc5c4)CC3)ccc2[nH]1)c1ccccc1 [Compound 354] | < 1
COC(=O)N[C@@H](C(=O)N1CCC[C@H]1c1nc2cc(N3CC(=O)N(c4ccc5[nH]c([C@@H]6CCCN6C(=O)[C@H](NC(=O)OC)c6ccccc6)nc5c4)CC3=O)ccc2[nH]1)c1ccccc1 [Compound 357] | > 10
CC(C)[C@H](NC(=O)OCc1ccccc1)C(=O)N1CCC[C@H]1c1nc2cc(-c3ccc(-c4ccc5[nH]c([C@@H]6CCCN6C(=O)[C@@H](NC(=O)OCc6ccccc6)C(C)C)nc5c4)cc3)ccc2[nH]1 [Compound 361] | > 10
COC(=O)N[C@H](C(=O)N1CCC[C@H]1c1nc2cc(-c3ccc(-c4ccc5[nH]c([C@@H]6CCCN6C(=O)[C@@H](NC(=O)OC)C(C)(C)C)nc5c4)cc3)ccc2[nH]1)C(C)(C)C [Compound 372] | < 1
